Test results from ChEMBL document CHEMBL1201862, “PubChem BioAssay data set” (2004).
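Five compound concentrations were applied to cells in 96-well plates for 48 hours; endpoints were derived by simple linear interpolation of the resulting dose-response curve. Abbreviation: GI50, concentration required for 50% inhibition of growth.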 Calls of active or inactive are those of the source. Cut-off read from the data, not from the text of the source: active = GI50 up to about 1.1 µM and inactive = higher.

How the values were obtained:
Test in all cases: inhibition of tumour cell growth, NCI panel, 48 h
NCI-H23 = system: NCI-H23
HCC 2998 = system: HCC 2998
MDA-MB-435 = system: MDA-MB-435
K562 = system: K562
RPMI-8226 = system: RPMI-8226
CAKI-1 = system: CAKI-1
KM12 = system: KM12
Hs-578T = system: Hs-578T
SK-MEL-28 = system: SK-MEL-28
NCI-H522 = system: NCI-H522
DU-145 = system: DU-145
UACC-62 = system: UACC-62
SF-268 = system: SF-268
HL-60 = system: HL-60
HOP-62 = system: HOP-62
SK-MEL-5 = system: SK-MEL-5
NCI-H226 = system: NCI-H226
NCI-H460 = system: NCI-H460
MOLT-4 = system: MOLT-4
SNB-75 = system: SNB-75

Compound | GI50 (NCI-H23) | GI50 (HCC 2998) | GI50 (MDA-MB-435) | GI50 (K562) | GI50 (RPMI-8226) | GI50 (CAKI-1) | GI50 (KM12) | GI50 (Hs-578T) | GI50 (SK-MEL-28) | GI50 (NCI-H522) | GI50 (DU-145) | GI50 (UACC-62) | GI50 (SF-268) | GI50 (HL-60) | GI50 (HOP-62) | GI50 (SK-MEL-5) | GI50 (NCI-H226) | GI50 (NCI-H460) | GI50 (MOLT-4) | GI50 (SNB-75)
O=C1c2cc(Br)ccc2-c2ccc3c4ccc5c6c(ccc(c7ccc1c2c73)c64)C(=O)c1cc(Br)ccc1-5 | > 100 µM (inactive) | > 100 µM (inactive) | > 100 µM (inactive) | > 100 µM (inactive) | > 100 µM (inactive) | > 100 µM (inactive) | > 100 µM (inactive) | > 100 µM (inactive) | > 100 µM (inactive) | > 100 µM (inactive) | > 100 µM (inactive) | > 100 µM (inactive) | > 100 µM (inactive) | 25.8 µM (inactive) | > 100 µM (inactive) | > 100 µM (inactive) | > 100 µM (inactive) | > 100 µM (inactive) |  | 
NC1=Nc2ncccc2C(=O)NN1 | > 10 µM (inactive) | 8.89 µM (inactive) | > 10 µM (inactive) | > 10 µM (inactive) | > 10 µM (inactive) |  | > 10 µM (inactive) | 0.382 µM (active) | > 10 µM (inactive) |  | > 10 µM (inactive) | > 10 µM (inactive) | > 10 µM (inactive) | > 10 µM (inactive) | > 10 µM (inactive) | > 10 µM (inactive) | > 10 µM (inactive) | > 10 µM (inactive) | > 10 µM (inactive) | > 10 µM (inactive)
CN(C)CCCn1c(Cc2ccc(Cl)cc2)nc2cc(C(F)(F)F)ccc21 | 15.8 µM (inactive) | 2 µM (inactive) | 12.9 µM (inactive) | 6.41 µM (inactive) | 40.8 µM (inactive) | 13.3 µM (inactive) | 14.3 µM (inactive) | 16.6 µM (inactive) | 17.9 µM (inactive) | 14.6 µM (inactive) | 14.1 µM (inactive) | 17.3 µM (inactive) | 14.1 µM (inactive) | 29.6 µM (inactive) | 15.2 µM (inactive) | 15.8 µM (inactive) | 18.7 µM (inactive) | 13.2 µM (inactive) | 11.2 µM (inactive) | 
CCCCc1c2c(nc3c1CCC/C3=C\c1ccccc1)C(=O)C(CN(C)C)CC2 (stereo unspecified) | 16.5 µM (inactive) | 28 µM (inactive) | 17.2 µM (inactive) | 6.89 µM (inactive) | 4.17 µM (inactive) |  | 16.9 µM (inactive) | 17.9 µM (inactive) | 14.8 µM (inactive) | 13.8 µM (inactive) | 15.6 µM (inactive) | 20.3 µM (inactive) | 16.2 µM (inactive) | 2.67 µM (inactive) | 16.5 µM (inactive) | 16.9 µM (inactive) | 22.6 µM (inactive) | 17.3 µM (inactive) | 2.86 µM (inactive) | 18.1 µM (inactive)
O=c1c2cc(S(=O)(=O)Nc3c(Cl)cccc3Cl)ccc2ncn1NS(=O)(=O)c1ccc2ccccc2c1 | > 62.5 µM (inactive) | 24.4 µM (inactive) | > 62.5 µM (inactive) | 16.6 µM (inactive) | 28.8 µM (inactive) | 25.9 µM (inactive) | 15.2 µM (inactive) | 15.8 µM (inactive) | > 62.5 µM (inactive) | 45.4 µM (inactive) | 42.9 µM (inactive) | 33.2 µM (inactive) | > 62.5 µM (inactive) | 20.2 µM (inactive) | 13 µM (inactive) |  | 8.87 µM (inactive) | 42.2 µM (inactive) | 30.3 µM (inactive) | 50.1 µM (inactive)
O=C(Cn1nc(Br)c(Br)c1Br)c1ccccc1 | 24.8 µM (inactive) | 36.6 µM (inactive) | 31 µM (inactive) | 10.8 µM (inactive) |  | 26.7 µM (inactive) | 33.4 µM (inactive) | 44.1 µM (inactive) | 37.2 µM (inactive) | 26 µM (inactive) | 38.5 µM (inactive) | 20 µM (inactive) | 51.3 µM (inactive) | 10.9 µM (inactive) | 37.2 µM (inactive) | 18.1 µM (inactive) | 11.8 µM (inactive) | 23.8 µM (inactive) | 0.238 µM (active) | 23.2 µM (inactive)
C=C1CCCCCCCCCCC12SCCC2CCCCSC (stereo unspecified) | 25.7 µM (inactive) | 21.4 µM (inactive) | 26.1 µM (inactive) | 22.9 µM (inactive) | 24.4 µM (inactive) |  |  | 39.4 µM (inactive) | 26.5 µM (inactive) | 17.2 µM (inactive) | 40.6 µM (inactive) | 27.1 µM (inactive) | 28.7 µM (inactive) | 26.5 µM (inactive) | 20 µM (inactive) | 17.3 µM (inactive) | 20.4 µM (inactive) | 34.5 µM (inactive) | 21.3 µM (inactive) | 
O=C(O)CC(NC(=O)CP(=O)(O)O)C(=O)O (stereo unspecified) | 2800 µM (inactive) | 7930 µM (inactive) | 37.6 µM (inactive) | 94.8 µM (inactive) | 244 µM (inactive) |  | 149 µM (inactive) | 3640 µM (inactive) |  | 1650 µM (inactive) | 933 µM (inactive) | 79.6 µM (inactive) | 180 µM (inactive) | 283 µM (inactive) | 313 µM (inactive) | 101 µM (inactive) | 2280 µM (inactive) | 25.4 µM (inactive) | 238 µM (inactive) | 6080 µM (inactive)
CC1C(=O)C23OC[C@@]1(C)C1(O)CC[C@@H](C)[C@]21CC3=O (stereo partly specified) | > 100 µM (inactive) | > 100 µM (inactive) | > 100 µM (inactive) | > 100 µM (inactive) | > 100 µM (inactive) |  | > 100 µM (inactive) | > 100 µM (inactive) | > 100 µM (inactive) | > 100 µM (inactive) | > 100 µM (inactive) | > 100 µM (inactive) | > 100 µM (inactive) | > 100 µM (inactive) | > 100 µM (inactive) | > 100 µM (inactive) | > 100 µM (inactive) | > 100 µM (inactive) | > 100 µM (inactive) | > 100 µM (inactive)
CC(NNC(=O)c1ccncc1)c1ccc(F)cc1 (stereo unspecified) | > 100 µM (inactive) | > 100 µM (inactive) | > 100 µM (inactive) | > 100 µM (inactive) |  | > 100 µM (inactive) | > 100 µM (inactive) | > 100 µM (inactive) | > 100 µM (inactive) | > 100 µM (inactive) | > 100 µM (inactive) | > 100 µM (inactive) | > 100 µM (inactive) | 80 µM (inactive) | > 100 µM (inactive) | > 100 µM (inactive) | > 100 µM (inactive) | > 100 µM (inactive) | 6.65 µM (inactive) | > 100 µM (inactive)
Cc1ccc(S(=O)(=O)N[C@@H](Cc2ccccc2)C(=O)CCl)cc1 [TPCK] | 13.6 µM (inactive) | 13.9 µM (inactive) | 14.3 µM (inactive) | 9.75 µM (inactive) |  |  |  | 1.82 µM (inactive) | 18.6 µM (inactive) | 9.68 µM (inactive) | 17.7 µM (inactive) | 13.6 µM (inactive) | 15.7 µM (inactive) | 4.66 µM (inactive) | 17.3 µM (inactive) | 12.2 µM (inactive) | 15.2 µM (inactive) | 15.5 µM (inactive) |  | 14.3 µM (inactive)
